Results: patent publication US20030124655A1, “Receptor protein specifically recognizing bacterial dna” (priority 2000, published 2003)
Read-outs that look alike come from different tables or passages of the source.

Key:
spleen cells = assay: Spleen cell proliferation, [3H]-timidine uptake; assay type: cell-based, mouse
B cells = assay: MHC class II expression on the surface of B cells; assay type: cell-based, mouse; conditions: B cells from wild-type mice
[1] = test system: dendritic cells derived from bone marrow; assay: IL-12 p40 production in bone marrow-derived dendritic cells (ELISA); assay type: cell-based, mouse; conditions: dendritic cells from wild-type mice; 0.1 μM, 2 days
JNK = JNK activity in macrophages, in vitro kinase assay; assay type: cell-based, mouse
Description: (§1) As described in a reference (Immunity 11, 115-122, 1999), the JNK activity and IRAK activity were measured by in vitro kinase assay using GST-c-Jun fusion protein (GST-c-Jun) as a substrate (top figures of FIG. 10 and FIG. 11; GST-c-Jun, Auto).
(§2) The cell lysates were separated by SDS-polyacrylamide gel electrophoresis to transfer them onto a nitrocellulose membrane and blotted the membrane with anti-JNK antibody (Santa Cruz) or anti-IRAK antibody (Transduction Laboratories) to visualize using an enhanced chemiluminescent system (Dupont) (bottom figures of FIG. 10 and FIG. 11; WB).

IRAK = IRAK activity in macrophages, in vitro kinase assay; assay type: cell-based, mouse
Description: as §1, §2

[2] = cited from earlier work
NF-κB = NF-κB DNA-binding activity in peritoneal macrophages (gel shift); conditions: 1.0 μM
Description: 2 ml of 4% thioglycolic acid medium (DIFCO) was injected to each peritoneum of wild-type mice and TLR9 knockout mice (TLR9^−/−), peritoneal exudation cells were isolated from peritonea from each mouse after 3 days, the cells were cultured in RPMI1640 medium to which 10% of fetal bovine serum (GIBCO) was added at 37° C. for 2 hours, and remove the unattached cells by washing with ice-chilled Hank's buffered salt solution (HBSS; GIBCO), and the attached cells were used as peritoneal macrophages in the following experiments.

[3] = macrophages from TLR9 knockout mice
[4] = macrophages from wild-type mice

**Q.** Which “cell proliferating reaction ([3H]-timidine uptake)” value (spleen cells; spleen cells from TLR9 knockout mice, any concentration) does the source give for “TCC-ATG-ACG-TTC-CTG-ATG-CT (DNA TCCATGACGTTCCTGATGCT; listed as DNA, chemistry not given here) [CpG ODN]” here?
**A.** did not show any cell proliferating reaction

**Q.** And the “cell proliferating reaction ([3H]-timidine uptake)” value (spleen cells; spleen cells from wild-type mice)?
**A.** promote cell proliferating reactions depending on the amount

**Q.** And the “amount of expressing MHC class II on the surface of B cells” value (B cells)?
**A.** increased

**Q.** What about the “IL-12 p40 production” value [1] of the same substance?
**A.** produced IL-12

**Q.** And the JNK activation (JNK; [3])?
**A.** does not activate

**Q.** And the JNK activation (JNK; [4])?
**A.** activates

**Q.** And the IRAK activation (IRAK; [3])?
**A.** does not activate

**Q.** What about the IRAK activation (IRAK; [4]) of the same substance?
**A.** activates

**Q.** And the “response to CpG ODN” value ([2]; MyD88 knockout mice)?
**A.** do not show response

**Q.** And the “response to CpG ODN” value ([2]; TLR2 knockout mice)?
**A.** show normal response

**Q.** What about the “response to CpG ODN” value ([2]; TLR4 knockout mice) of the same substance?
**A.** show normal response

**Q.** What about the “NF-κB DNA-binding activity” value (NF-κB; [3]) of the same substance?
**A.** did not increase NF-κB DNA-binding activity

**Q.** What about the “NF-κB DNA-binding activity” value (NF-κB; [4]) of the same substance?
**A.** increased NF-κB DNA-binding activity
